Test results published in ChEMBL document CHEMBL5154648, “Antitumor activity of novel POLA1-HDAC11 dual inhibitors” (Eur J Med Chem, 2022).
Active and inactive are the calls of the source. No cut-off for these calls is given here.

Tests used:
[1] = Antiproliferative activity against human H460-R9A cells incubated for 24 hrs followed by incubating in drug-free medium for 48 hrs and measured by SRB assay; assay type: functional, cell-based
[2] = Resistance index, ratio of IC50 for human A2780 cells to IC50 for A2780-DX cells; assay type: functional
[3] = test system: A2780; experiment: Antiproliferative activity against human A2780 cells incubated for 24 hrs followed by incubating in drug-free medium for 48 hrs and measured by SRB assay; assay type: functional, cell-based
[4] = test system: NCI-H460; experiment: Antiproliferative activity against human NCI-H460 cells incubated for 24 hrs followed by incubating in drug-free medium for 48 hrs and measured by SRB assay; assay type: functional, cell-based
[5] = Antiproliferative activity against multi-drug resistant human A2780-DX cells incubated for 24 hrs followed by incubating in drug-free medium for 48 hrs and measured by SRB assay; assay type: functional, cell-based
[6] = Resistance index, ratio of IC50 for human NCI-H460 cells to IC50 for H460-R9A cells; assay type: functional
[7] = test system: H460-R9A; experiment: Antiproliferative activity against human H460-R9A cells at 3.75 to 60 uM after 72 hrs by MTT assay; assay type: functional, cell-based; details: dose 3.75-60 µM
[8] = test system: NCI-H460; experiment: Induction of cell cycle arrest in human NCI-H460 cells assessed as accumulation of cells at sub-G1 phase at 4.2 uM after 72 hrs by flow cytometry (reference value: 1.1%); assay type: functional
[9] = test system: NCI-H460; experiment: Antiproliferative activity against human NCI-H460 cells at 7.4 uM assessed as reduction in PIN1 level and measured by Western blot analysis; assay type: functional, cell-based
[10] = test system: NCI-H460; experiment: Induction of cell cycle arrest in human NCI-H460 cells assessed as accumulation of cells at G2/M phase at 4.2 uM after 72 hrs by flow cytometry (reference value: 21.1%); assay type: functional
[11] = Induction of cell cycle arrest in human H460-R9A cells assessed as accumulation of cells at S phase at 1.9 uM after 72 hrs by flow cytometry (reference value: 34.5%); assay type: functional
[12] = test system: NCI-H460; experiment: Induction of DNA damage in human NCI-H460 cells at 7.4 uM assessed as increase in p-H2AX levels and measured by Western blot analysis; assay type: functional, cell-based
[13] = biological target: T1, DNA polymerase alpha catalytic subunit (Homo sapiens) (UniProt P09884); experiment: Inhibition of POLA1 in human NCI-H460 cells at 7.4 uM assessed as upregulation of p21 expression and measured by Western blot analysis; assay type: cell-based
T1 sequence (whole entry): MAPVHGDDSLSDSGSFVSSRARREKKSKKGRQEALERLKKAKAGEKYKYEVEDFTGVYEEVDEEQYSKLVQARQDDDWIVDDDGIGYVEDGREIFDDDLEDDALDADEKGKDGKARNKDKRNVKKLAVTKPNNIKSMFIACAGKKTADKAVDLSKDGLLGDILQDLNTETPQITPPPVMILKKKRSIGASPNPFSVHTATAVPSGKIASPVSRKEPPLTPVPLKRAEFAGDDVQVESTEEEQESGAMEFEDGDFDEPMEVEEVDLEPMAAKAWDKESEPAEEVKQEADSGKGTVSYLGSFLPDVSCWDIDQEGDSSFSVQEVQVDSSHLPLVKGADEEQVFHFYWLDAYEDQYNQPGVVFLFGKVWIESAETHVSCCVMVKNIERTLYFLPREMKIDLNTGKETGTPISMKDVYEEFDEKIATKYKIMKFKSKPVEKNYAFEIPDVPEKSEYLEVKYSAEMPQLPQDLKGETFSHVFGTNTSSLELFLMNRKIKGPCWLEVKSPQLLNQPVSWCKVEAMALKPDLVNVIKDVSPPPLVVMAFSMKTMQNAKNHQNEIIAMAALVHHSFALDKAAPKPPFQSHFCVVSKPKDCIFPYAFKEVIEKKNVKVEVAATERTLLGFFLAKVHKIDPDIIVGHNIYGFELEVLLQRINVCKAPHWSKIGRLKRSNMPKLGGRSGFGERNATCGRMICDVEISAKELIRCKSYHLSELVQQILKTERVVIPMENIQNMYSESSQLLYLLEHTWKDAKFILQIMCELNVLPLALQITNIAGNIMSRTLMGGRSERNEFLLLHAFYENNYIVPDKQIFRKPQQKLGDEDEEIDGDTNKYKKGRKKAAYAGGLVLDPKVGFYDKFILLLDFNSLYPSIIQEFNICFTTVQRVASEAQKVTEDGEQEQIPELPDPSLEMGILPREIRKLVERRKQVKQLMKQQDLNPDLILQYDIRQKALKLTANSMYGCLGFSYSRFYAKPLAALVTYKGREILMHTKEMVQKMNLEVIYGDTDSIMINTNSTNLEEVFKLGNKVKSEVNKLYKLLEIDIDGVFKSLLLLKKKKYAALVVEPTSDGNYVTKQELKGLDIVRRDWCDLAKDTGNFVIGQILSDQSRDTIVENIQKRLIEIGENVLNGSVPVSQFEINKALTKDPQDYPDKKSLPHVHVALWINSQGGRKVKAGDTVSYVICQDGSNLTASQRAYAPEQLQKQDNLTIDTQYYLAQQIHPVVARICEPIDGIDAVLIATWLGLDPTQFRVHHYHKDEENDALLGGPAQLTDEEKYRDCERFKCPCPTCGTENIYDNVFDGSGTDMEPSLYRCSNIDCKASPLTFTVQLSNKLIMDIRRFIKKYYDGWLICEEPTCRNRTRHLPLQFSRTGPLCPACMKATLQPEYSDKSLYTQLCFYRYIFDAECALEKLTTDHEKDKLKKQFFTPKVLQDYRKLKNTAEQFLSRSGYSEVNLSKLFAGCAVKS

[14] = test system: NCI-H460; experiment: Induction of cell cycle arrest in human NCI-H460 cells assessed as accumulation of cells at G0/1 phase at 4.2 uM after 72 hrs by flow cytometry (reference value: 46.8%); assay type: functional
[15] = Induction of cell cycle arrest in human H460-R9A cells assessed as accumulation of cells at sub-G1 phase at 1.9 uM after 72 hrs by flow cytometry (reference value: 1.5%); assay type: functional
[16] = test system: NCI-H460; experiment: Induction of cell cycle arrest in human NCI-H460 cells assessed as accumulation of cells at S phase at 4.2 uM after 72 hrs by flow cytometry (reference value: 32.1%); assay type: functional
[17] = Induction of cell cycle arrest in human H460-R9A cells assessed as accumulation of cells at G0/1 phase at 1.9 uM after 72 hrs by flow cytometry (reference value: 50.1%); assay type: functional
[18] = test system: NCI-H460; experiment: Antiproliferative activity against human NCI-H460 cells at 7.4 uM assessed as reduction in p-ERK1/2 level and measured by Western blot analysis; assay type: functional, cell-based
[19] = Induction of cell cycle arrest in human H460-R9A cells assessed as accumulation of cells at G2/M phase at 1.9 uM after 72 hrs by flow cytometry (reference value: 15.4%); assay type: functional
[20] = test system: L-428; experiment: Antiproliferative activity against human L-428 cells incubated for 24 hrs followed by incubating in drug-free medium for 48 hrs and measured by SRB assay; assay type: functional, cell-based

SMILES | IC50 [1] | Ratio IC50 [2] | IC50 [3] | IC50 [4] | IC50 [5] | Ratio IC50 [6] | also measured
O=C(O)C=Cc1ccc(-c2ccc(OCCC(=O)O)c(C34CC5CC(CC(C5)C3)C4)c2)cc1 | > 10 µM | 2.38 | 10 µM | 10 µM | 23.8 µM | – | –
O=C(O)C=Cc1ccc(-c2ccc(OCCCCCCCC(=O)NO)c(C34CC5CC(CC(C5)C3)C4)c2)cc1 | 9.6 µM | – | – | 5.5 µM | – | 1.7 | –
O=C(O)C=Cc1ccc(-c2ccc(OCCCCC(=O)NO)c(C34CC5CC(CC(C5)C3)C4)c2)cc1 | 8.6 µM | 1.7 | 3.6 µM | 1.9 µM | 6.4 µM | 4.5 | –
CCCCCCCCCCCCCCCCNNC(=O)c1cccs1 | – | – | – | – | – | – | Activity [7]: Active
O=C(CCCCCCC(=O)Nc1ccccc1)NO [VORINOSTAT] | – | – | – | – | 33 µM | – | Activity [8]: 1.8%; Activity [9]: Active; Activity [10]: 23.1%; Activity [11]: 14.7%; Activity [12]: Active; inhibition [13]: Active; Activity [14]: 65.2%; Activity [15]: 2.1%; Activity [16]: 11.7%; Activity [17]: 62.2%; Activity [18]: Active; Activity [19]: 21%; IC50 [20]: 2.3 µM
O=C(O)C=Cc1ccc(-c2ccc(OCCC(=O)NO)c(C34CC5CC(CC(C5)C3)C4)c2)cc1 | 10.6 µM | – | – | 8.3 µM | – | 1.3 | –
O=C(O)C=Cc1ccc(-c2ccc(OCC(=O)O)c(C34CC5CC(CC(C5)C3)C4)c2)cc1 | > 10 µM | – | – | > 10 µM | – | – | –
CC(C)(Oc1ccc(-c2ccc(C=CC(=O)O)cc2)cc1C12CC3CC(CC(C3)C1)C2)C(=O)NO | 7.3 µM | – | – | 1.3 µM | – | 5.6 | –
O=C(O)C=Cc1ccc(-c2ccc(OCCCC(=O)NO)c(C34CC5CC(CC(C5)C3)C4)c2)cc1 | 8.3 µM | 0.9 | 4.2 µM | 1.7 µM | 3.9 µM | 4.9 | –
